The results in this text go back to patent publication EP0933027A1, “Methods and compositions for protecting animals and humans against attack and infestation by arthropod and helminth parasites” (American Cyanamid Company, priority 1998, dated 1999).

Assay [1] has as its system Pyrethroid-susceptible horn fly (Haematobia irritans). Nature of the assay: Treated filter paper test against adult pyrethroid-susceptible horn fly. The note with it: corrected for control mortality. As for the experimental part: (§1) Test doses are expressed as µg of test substance per cm^2 of filter paper. • 1) Prepare solutions of test compound in acetone such that 800 or 1000 µL contains the amount necessary to obtain the desired dose rate. • 2) Pipette 800 or 1000 µL of test solution onto filter paper. • 3) Filter papers are dried under a fume hood. • 4) When dry, filter papers are placed in the petri dish tops. Dishes are generally held about 24 hours before test organism is added. • 5) Two- to five-day-old horn flies (pyrethroid-susceptible or -resistant) which have had two or more blood meals are used in the assay. Flies are collected into a small vial from the holding cage. Vials are then chilled in a freezer for about 4 minutes to immobilize the flies. Immobilized flies are then distributed to petri dish bottoms, 12 to 25 flies per dish, then dishes are closed and inverted. • 6) As soon as the flies become mobile (about 5 minutes), they are examined to detect any flies that are dead or injured. This number is subtracted from total number of flies in the dish. • 7) Petri dishes are held at room temperature and examined at the desired time intervals which might be 10 minutes to 6 hours. • 8) All dead flies are recorded at each examination time. […] 10) Percent mortality at any time period is calculated using the following formula: (Number of dead flies - number dead @ 5 min)/(Total number of flies - number dead @ 5 min)x 100 [formula] Percent mortality is then corrected for control mortality using Abbot's formula.

The test system of assay [2] is Pyrethroid-resistant horn fly (Haematobia irritans). Description: Treated filter paper test against adult pyrethroid-resistant horn fly. The note with it: corrected for control mortality. As for the experimental part:
as §1

As usually defined, the mortality is the percentage killed.

The compound `F/C(=C\Cc1ccc(F)c(Oc2ccccc2)c1)C(c1ccc(Cl)cc1)C1CC1` (centres unmarked) [Compound 5, 1-[1-(p-Chlorophenyl)-2-fluoro-4-(4-fluoro-3-phenoxyphenyl)-2-butenyl]cyclopropane, (Z)-] displayed a mortality at 0.156 µg/cm2 in assay [1] (dose 0.1560 µg/cm^2, 6 hours) of 0%. Also, the mortality at 0.3125 µg/cm2 in assay [1] (dose 0.3125 µg/cm^2, 6 hours) was 5%. The mortality at 0.625 µg/cm2 in assay [1] (dose 0.625 µg/cm^2, 6 hours) amounted to 27%. The mortality at 1.25 µg/cm2 was 88% in assay [1] (dose 1.25 µg/cm^2, 6 hours) and 0% in assay [2] (dose 1.25 µg/cm^2, 6 hours). In addition, the mortality at 2.5 µg/cm2 in assay [1] (dose 2.50 µg/cm^2, 6 hours) is 98%; in assay [2] (dose 2.50 µg/cm^2, 6 hours), 1%. Further, the mortality at 5 µg/cm2 in assay [1] (dose 5.00 µg/cm^2, 6 hours) came out at 100%; in assay [2] (dose 5.00 µg/cm^2, 6 hours), 7%. The same compound displayed a mortality at 10 µg/cm2 in assay [2] (dose 10.0 µg/cm^2, 6 hours) of 33%. Further, the mortality at 20 µg/cm2 in assay [2] (dose 20.0 µg/cm^2, 6 hours) came to 93%.
